# Results published in patent publication US20230295134A1, “USE OF PHENYLQUINOLINONE DERIVATIVE OR FLAVONOID DERIVATIVE FOR TREATING NEUROPATHIC PAIN” (HANGZHOU BIO-SINCERITY PHARMA-TECH CO., LTD., priority 2019, published 2023).
# Legend:
# PSL model rats = assay: Heat pain threshold in partial sciatic nerve ligation (PSL) model; assay type: in vivo, SD rats; details: for heat pain threshold vs Pregabalin group: comparator 30 mg/kg Pregabalin
# Protocol: Male SD rats, weighting 200-250 g, were used to establish partial sciatic nerve ligation (PSL) model. The rats were subjected to ligation of the right sciatic nerve at high-tight level, so that ⅓-½ thickness of the sciatic nerve was trapped in the ligature, and then the wound was closed. The rats in sham group were subjected to the same operative procedure as the PSL model but without nerve ligation. On the sixth day after operation, heat pain threshold was measured in PSL model rats with Plantar Test Apparatus (BME-410) for 2 days to choose rats with stable heat pain threshold, which were randomly divided into 5 groups: 1) model; 2) 30 mg/kg Pregabalin; 3) 3 mg/kg Compound I-6; 4) 1 mg/kg Compound I-6; and 5) 0.3 mg/kg Compound I-6. Group 2-5 were given corresponding medicines orally with the dose of 1 ml/100 g, while the Group model and normal were given saline of the same volume with the same method. Heat pain threshold was measured before administration and 1, 2, 4, 6 h after intragastric administration, and the results were shown in FIG. 1.
# Male SD rats, weighting 200-250g, were used to establish partial sciatic nerve ligation (PSL) model. The rats were subjected to ligation of the right sciatic nerve at high-tight level, so that ⅓-½ thickness of the sciatic nerve was trapped in the ligature, and then the wound was closed. The rats in sham group were subjected to the same operative procedure as the PSL model but without nerve ligation. On the sixth day after operation, heat pain threshold was measured in PSL model rats with Plantar Test Apparatus (BME-410) for 2 days to choose rats with stable heat pain threshold, which were randomly divided into 7 groups: 1) model; 2) 50 mg/kg Gabapentin; 3) 100 mg/kg Carbamazepine; 4) 10 mg/kg Amitriptyline; 5) 1 mg/kg Compound I-4; 6) 1 mg/kg Compound I-6; and 7) 1 mg/kg Compound II-4. Group 2 -7 were given corresponding medicines orally with the dose of 1 ml/100 g, while the Group model and normal were given saline of the same volume with the same method. Heat pain threshold was measured before and 1, 2, 4, 6h after intragastric administration, and the results were shown in FIG. 2.
# CCI model rats [1] = assay: Mechanical withdrawal threshold in chronic constrictive injury (CCI) model, single dose; assay type: in vivo, SD rats
# Description: Male SD rats, weighting 200-250 g, were used to establish chronic constrictive injury (CCI) model. The common sciatic nerve was exposed at the level of the middle of the thigh, and 4 ligatures (4.0 chromic gut, 0.15 mm) were tied loosely with about 1-2 mm spacing to the position proximal to the sciatic's trifurcation. The rats in sham group were subjected to the same operative procedure as the CCI model but without nerve ligation. On the seventh day after operation, mechanical withdrawal threshold was measured in CCI model rats with Electric Von Frey (IITC-2391) for 2 days to choose rats with stable mechanical withdrawal threshold, which were divided into 5 groups: 1) model; 2) 50 mg/kg Gabapentin; 3) 9 mg/kg Compound I-4; 4) 3 mg/kg Compound I-4; and 5) 1 mg/kg Compound I-4. Group 2 -5 were given corresponding medicines orally with the dose of 1 ml/100 g, while the Group model and normal were given saline of the same volume with the same method. Mechanical withdrawal threshold was measured before administration and 1, 2, 4, 6 h after intragastric administration, and the results were shown in FIG. 3.
# [2] = tested on: diabetic neuropathic pain model; assay: Heat pain threshold in STZ-induced diabetic neuropathic pain model; assay type: in vivo, SD rats; details: STZ rats; for heat pain threshold of diabetic neuropathic pain model: single dose PO, I-6 1 mg/kg, Gabapentin 50 mg/kg
# Protocol: Male SD rats (200-250 g) with normal blood sugar were fasted but had free access to water for 12 hours. The diabetes model was induced by intraperitoneal injection of 60 mg/kg streptozotocin (STZ), and was examined by 2-hour postprandial sugar level on day 7 after injection, which should be higher than 16 mmol/L. The rats in normal group were given an equal volume of citric acid-sodium citrate buffer (pH 4.2). On day 14 after injection, the heat pain threshold of rats in diabetes model or normal group were measured with Plantar Test Apparatus (BME-410) to examine the success of diabetic neuropathic pain model. The rats in diabetic neuropathic pain model were divided into 3 groups: 1) model; 2) 50 mg/kg Gabapentin; and 3) 1 mg/kg Compound I-6. Group 2 and 3 were given corresponding medicines orally with the dose of 1 ml/100 g, while the Group model and normal were given saline of the same volume with the same method. Heat pain threshold was measured before administration and 1, 2, 4, 6 h after administration, and the results were shown in FIG. 4.
# [3] = In vivo pharmacokinetic studies (bioavailability); details: SD rats
# Protocol: The in vivo pharmacokinetic studies of Compound I-6 were conducted in SD rats (n=3).
# [4] = Security: intragastric administration of different dosages in mice; assay type: in vivo; details: mouse, in vivo, po; ICR mice; intragastric administration; read-out: half lethal dose (LD50)
# ICR mice = assay: as above; assay type: in vivo
# CCI model rats [5] = assay: Mechanical withdrawal threshold in CCI model, 5 days repeated administration; assay type: in vivo, SD rats
# Description: Male SD rats, weighting 200-250 g, were used to establish CCI model. The common sciatic nerve was exposed at the level of the middle of the thigh, and 4 ligatures (4.0 chromic gut, 0.15 mm) were tied loosely with about 1-2 mm spacing to the position proximal to the sciatic's trifurcation, then the wound was closed. The rats in sham group were subjected to the same operative procedure as the CCI model but without nerve ligation. On the seventh day after operation, mechanical withdrawal threshold was measured in CCI model rats with Electric Von Frey (IITC-2391) for 2 days to choose rats with stable mechanical withdrawal threshold, which were divided into 5 groups: 1) model; 2) 50 mg/kg Gabapentin; 3) 3 mg/kg Compound I-10; 4) 1 mg/kg Compound I-10; and 5) 0.3 mg/kg Compound I-10. Group 2-5 were given corresponding medicines orally with the dose of 1 ml/100 g for 5 days, while the Group model and normal were given saline of the same volume with the same method. Mechanical withdrawal threshold was measured before and 2 h after intragastric administration, and the results were shown in FIG. 6.
# [6] = tested on: OXA neuropathic pain model rats; assay: Mechanical withdrawal threshold in Oxaliplatin chemotherapy-induced neuropathic pain model; assay type: in vivo, SD rats; details: for mechanical withdrawal threshold vs Pregabalin: 2nd-4th hour after administration
# Protocol: Male SD rats (200-250 g) were injected 4 mg/kg of Oxaliplatin by intraperitoneal on day 1, 2, 8, 9, 15, 16, 22 and 23 to establish chemotherapy-induced neuropathic pain model. On day 24, the mechanical withdrawal threshold of rats in group normal and model were measured with Electric Von Frey (IITC-2391) to choose rats with stable mechanical withdrawal threshold, which were randomly divided into 5 groups: 1) model; 2) 30 mg/kg Pregabalin; 3) 9 mg/kg Compound II-4; 4) 3 mg/kg Compound II-4; and 5) 1 mg/kg Compound II-4. Group 2 -5 were given corresponding medicines orally with the dose of 1 ml/100g, while the Group model and normal were given saline of the same volume with the same method. Mechanical withdrawal threshold was measured before administration and 1, 2, 4, 6h after single administration, and the results were shown in FIG. 5.
# [7] = 1 mg/kg PO single dose, since 1 hour after administration
# [8] = 1 mg/kg PO, comparator 50 mg/kg Gabapentin
structure (smiles),measurement,setting,value
"Cn1c(-c2ccc(OCCCN3CCCCC3)cc2)cc(=O)c2ccccc21 [Compound I-4, 1-Methyl-2-(4-(3-(Piperidin-1-Yl)Propoxy)Phenyl)Quinolin-4(1H)-One]",heat pain threshold vs model group,PSL model rats; [7],significantly higher than model group
same,mechanical withdrawal threshold vs model group,"CCI model rats [1]; 3 mg/kg PO, 1st-4th hour after administration",significantly higher (P<0.01) than model group
same,"mechanical withdrawal threshold, relation to dose","CCI model rats [1]; single dose 1, 3 or 9 mg/kg PO",dose-dependent increase
same,effective time,"CCI model rats [1]; single dose PO, compared with 50 mg/kg Gabapentin",longer than Gabapentin
"CCn1c(-c2ccc(OCCCN3CCCCC3)cc2)cc(=O)c2ccccc21 [Compound I-6, 1-Ethyl-2-(4-(3-(Piperidin-1-Yl)Propoxy)Phenyl)Quinolin-4(1H)-One]",effective time vs Gabapentin,[2]; [8],longer effective time
same,heat pain threshold vs Gabapentin,[2]; [8],significantly higher heat pain threshold (P<0.01)
same,heat pain threshold of diabetic neuropathic pain model,[2],could improve the heat pain threshold
same,heat pain threshold vs model group,"PSL model rats; 0.3 mg/kg PO, 2nd hour after administration",significantly higher (P<0.01) than model group
same,heat pain threshold vs model group,PSL model rats; [7],significantly higher than model group
same,heat pain threshold vs Pregabalin group,PSL model rats; 1.0 mg/kg PO,raised to be compared to 30 mg/kg Pregabalin group
same,heat pain threshold vs sham group,"PSL model rats; 3.0 mg/kg PO, 1st-2nd hour after administration",further improved to the level equal to sham group
same,heat pain threshold vs Pregabalin group,"PSL model rats; 3.0 mg/kg PO, 1st-2nd hour",better than Pregabalin group
same,"heat pain threshold, relation to dose","PSL model rats; single dose 0.3, 1 or 3 mg/kg PO",increased in a dose-dependent manner
same,time at which peak plasma concentrations occur,[3]; P.O 10.0 mg/kg,2.00 ± 1.73 h
same,half-life,"[3]; Sprague-Dawley (SD), rat, plasma, iv, 1 mg/kg, I.V 1.00mg/kg",6 ± 1.43 h
same,bioavailability,"[3]; Sprague-Dawley (SD), rat, plasma, po, 10 mg/kg, read-out: absolute bioavailability",51.3%
same,half-life,"[3]; Sprague-Dawley (SD), rat, plasma, po, P.O 10.0 mg/kg",3.79 ± 0.12 h
same,LD50,[4],> 1020 mg/kg
same,signs after intragastric administration,ICR mice; 64 mg/kg,no abnormal signs
same,signs after intragastric administration,ICR mice; 256 mg/kg,one of the mice given a dose of 256 mg/kg suffered convulsions but recovered on the second day
same,signs after intragastric administration,ICR mice; 1024 mg/kg,one of the mice given a dose of 1024 mg/kg suffered convulsions and finally died on the second day
"COc1c(-c2ccc(OCCCN3CCCCC3)cc2)n(C)c2ccccc2c1=O [Compound I-10, 3-Methoxy-1-Methyl-2-(4-(3-(Piperidin-1-Yl)Propoxy)Phenyl)Quinolin-4(1H)-One]",mechanical withdrawal threshold vs model group,"CCI model rats [5]; 1 mg/kg PO for 5 days, 1st-5th day after administration",significantly higher (P<0.01) than model group
same,dose-dependency and stability of efficacy,"CCI model rats [5]; 5 days PO, compared with 50 mg/kg Gabapentin",better dose-dependency and stability of efficacy compared to Gabapentin
same,"mechanical withdrawal threshold, relation to dose","CCI model rats [5]; repeated administration 5 days, 0.3, 1 or 3 mg/kg PO",increased in a dose-dependent manner
"COc1c(-c2ccc(OCCCN3CCCCC3)cc2)oc2ccccc2c1=O [Compound II-4, 3-Methoxy-2-(4-(3-(Piperidin-1-Yl)Propoxy)Phenyl)-4H-Chromen-4-One]",heat pain threshold vs model group,PSL model rats; [7],significantly higher than model group
same,mechanical withdrawal threshold vs model group,"[6]; 1 mg/kg PO, 1st-2nd hour after administration",significantly higher (P<0.01) than model group
same,mechanical withdrawal threshold vs Pregabalin,[6]; 3 mg/kg PO,significantly higher (P<0.05) than 30 mg/kg Pregabalin
same,mechanical withdrawal threshold vs Pregabalin,[6]; 9 mg/kg PO,significantly higher (P<0.05) than 30 mg/kg Pregabalin
same,"mechanical withdrawal threshold, relation to dose","[6]; single dose 1, 3 or 9 mg/kg PO",dosage-dependent increase
same,improvement of mechanical withdrawal threshold compared with Pregabalin,[6]; single dose PO,more effectively and longer
"NCC1(CC(=O)O)CCCCC1 [Gabapentin, reference compound]",mechanical withdrawal threshold vs model group,CCI model rats [5]; 50 mg/kg PO for 5 days,only kept the significant difference during 2nd-5th day
same,heat pain threshold of diabetic neuropathic pain model,[2],could improve the heat pain threshold
same,mechanical withdrawal threshold vs model group,CCI model rats [1]; 50 mg/kg PO single dose,only remained significantly higher than model group during 1st-2nd hour
"CC(C)C[C@H](CN)CC(=O)O [Pregabalin, reference compound]",onset of action on mechanical withdrawal threshold,[6]; 30 mg/kg PO,rapid action
